{
  "source": "patent US6506434B1",
  "about": "“Process for coating N-[N-(3,3-dimethylbutyl)-L-α-aspartyl]-L-phenylalanine 1-methyl ester onto a carrier” (The NutraSweet Company, priority 1999, dated 2003)",
  "origin": "cited, not measured here",
  "details": "relative to sugar; stated as known",
  "data": [
    {"compound": "COC(=O)[C@H](Cc1ccccc1)NC(=O)[C@H](CC(=O)O)NCCC(C)(C)C", "note": "[neotame, N-[N-(3,3-dimethylbutyl)-L-α-aspartyl]-phenylalanine 1-methyl ester]", "values": [
      {"measurement": "sweetening potency (sweeter than sugar)", "result": "about 8000 ×"}
    ]}
  ]
}
